{
  "source": "paper PMC5986547",
  "about": "(Heliyon, 2018)",
  "key": {"hNET [1]": {"molecular_target": "T1, hNET (Homo sapiens, UniProt P23975)", "T1 sequence (P23975 whole entry)": "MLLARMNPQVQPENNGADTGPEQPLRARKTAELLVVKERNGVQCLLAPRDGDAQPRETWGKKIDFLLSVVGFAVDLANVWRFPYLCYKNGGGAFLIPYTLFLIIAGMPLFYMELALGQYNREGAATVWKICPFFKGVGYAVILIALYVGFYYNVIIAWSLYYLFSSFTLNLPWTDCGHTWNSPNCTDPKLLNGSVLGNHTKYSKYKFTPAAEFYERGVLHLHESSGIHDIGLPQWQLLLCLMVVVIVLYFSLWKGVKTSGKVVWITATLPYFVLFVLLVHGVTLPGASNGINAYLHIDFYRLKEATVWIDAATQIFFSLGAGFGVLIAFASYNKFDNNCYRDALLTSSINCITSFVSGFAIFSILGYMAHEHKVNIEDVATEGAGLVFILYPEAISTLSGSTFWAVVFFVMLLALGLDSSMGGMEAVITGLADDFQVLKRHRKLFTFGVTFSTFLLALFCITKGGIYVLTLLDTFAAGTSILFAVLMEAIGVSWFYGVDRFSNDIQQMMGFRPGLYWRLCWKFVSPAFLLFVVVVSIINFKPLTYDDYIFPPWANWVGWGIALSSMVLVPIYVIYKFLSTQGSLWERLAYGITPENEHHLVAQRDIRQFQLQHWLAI", "conditions": "read-out: IC50, reuptake inhibition, hNET-HEK293 cells; mean ± S.E.M.; cell suspensions; cited from earlier work"}, "hNET [2]": {"molecular_target": "T1, hNET", "type": "cell-based"}, "rNET [3]": {"molecular_target": "T2, rNET (Rattus norvegicus, UniProt Q63380)", "T2 sequence (Q63380 1-617)": "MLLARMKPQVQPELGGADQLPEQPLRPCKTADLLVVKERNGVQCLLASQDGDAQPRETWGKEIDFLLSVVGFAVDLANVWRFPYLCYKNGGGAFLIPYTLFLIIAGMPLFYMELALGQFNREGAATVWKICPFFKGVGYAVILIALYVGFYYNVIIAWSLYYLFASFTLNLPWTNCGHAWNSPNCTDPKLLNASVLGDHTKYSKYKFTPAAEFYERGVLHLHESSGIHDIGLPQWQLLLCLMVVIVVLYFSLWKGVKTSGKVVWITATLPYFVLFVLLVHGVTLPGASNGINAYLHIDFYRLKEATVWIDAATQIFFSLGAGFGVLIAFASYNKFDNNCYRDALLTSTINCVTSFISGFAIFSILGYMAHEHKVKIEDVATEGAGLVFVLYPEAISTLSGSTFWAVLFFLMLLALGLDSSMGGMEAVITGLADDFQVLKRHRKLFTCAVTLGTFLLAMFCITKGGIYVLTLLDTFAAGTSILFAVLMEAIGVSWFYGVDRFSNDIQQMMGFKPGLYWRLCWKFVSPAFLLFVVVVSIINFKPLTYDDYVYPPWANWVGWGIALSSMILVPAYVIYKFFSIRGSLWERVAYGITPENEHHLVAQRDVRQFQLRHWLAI", "type": "biochemical", "conditions": "read-out: IC50, rNET, synaptosomes (in parentheses, converted from Ki)"}, "rNET [4]": {"molecular_target": "T2, rNET", "conditions": "read-out: Ki, reuptake inhibition, rNET, synaptosomes; cited from earlier work"}, "hNET [5]": {"molecular_target": "T1, hNET", "assay": "Reuptake inhibition assay, [3H]NE, plated hNET-HEK293 cells", "type": "cell-based"}, "SK-N-BE(2)C cells": {"test_system": "SK-N-BE(2)C cells", "assay": "Uptake kinetics of [3H]NE by adherent SK-N-BE", "type": "cell-based, human", "conditions": "RT, 24-well plates, 163 μg of protein/well, mean ± S.E.M., N = 3"}},
  "note": "Where two headings read alike, the source gives them in different places.",
  "data": [
    {"compound": "COC(=O)[C@H]1C(c2ccc(I)cc2)C[C@@H]2CC[C@H]1N2C", "note": "(stereo partly shown) [RTI-55]", "values": [
      {"measurement": "IC50", "setting": "hNET [1]", "result": "2.63 ± 0.76", "unit": "nM"},
      {"measurement": "fold less potent in SK-N-BE(2)C cells than in rat brain synaptosomes", "setting": "hNET [2]; ratio of IC50 values", "result": 6, "unit": "fold"},
      {"measurement": "fold less potent in SK-N-BE(2)C cells than in hNET-HEK293 cells", "setting": "hNET [2]; ratio of IC50 values, hNET-HEK293 data of ref 8", "result": 14.4, "unit": "fold"}
    ]},
    {"compound": "c1ccc(CCCN2CCN(CCOC(c3ccccc3)c3ccccc3)CC2)cc1", "note": "[GBR12935]", "values": [
      {"measurement": "IC50", "setting": "hNET [1]", "result": "235 ± 53", "unit": "nM"},
      {"measurement": "IC50", "setting": "rNET [3]", "result": 299, "unit": "nM"},
      {"measurement": "fold less potent in SK-N-BE(2)C cells than in hNET-HEK293 cells", "setting": "hNET [2]", "result": 14.8, "unit": "fold"},
      {"measurement": "fold less potent in SK-N-BE(2)C cells than in rat brain synaptosomes", "setting": "hNET [2]", "result": 11.6, "unit": "fold"},
      {"measurement": "IC50", "setting": "hNET [2]; read-out: IC50, reuptake inhibition, hNET, SK-N-BE(2)C cells", "result": "3.47 ± 0.15", "unit": "µM"},
      {"measurement": "Ki", "setting": "rNET [4]", "result": 277, "unit": "nM"}
    ]},
    {"compound": "Fc1ccc(C(OCCN2CCN(CCCc3ccccc3)CC2)c2ccc(F)cc2)cc1", "note": "[GBR12909]", "values": [
      {"measurement": "activity in hNET-HEK293 cells, in words", "setting": "hNET [5]", "result": "inactive"}
    ]},
    {"compound": "CN1[C@H]2CC[C@@H]1[C@@H](C(=O)N1CCCC1)[C@@H](c1ccc(I)cc1)C2", "note": "[RTI-229]", "values": [
      {"measurement": "fold less potent in SK-N-BE(2)C cells than in rat brain synaptosomes", "setting": "hNET [2]; ratio of IC50 values", "result": 38, "unit": "fold"}
    ]},
    {"compound": "NC[C@H](O)c1ccc(O)c(O)c1", "note": "[[^3H]NE, [^3H]norepinephrine]", "values": [
      {"measurement": "Km", "setting": "SK-N-BE(2)C cells; read-out: KM of [3H]NE uptake", "result": 416, "unit": "nM"}
    ]},
    {"compound": "[3H][C@](O)(CN)c1ccc(O)c(O)c1", "note": "[[^3H]NE, [^3H]norepinephrine]", "values": [
      {"measurement": "VMAX of [3H]NE uptake", "setting": "SK-N-BE(2)C cells", "result": "195 ± 13 fmol radioactivity/mg protein/min"}
    ]}
  ]
}
